Reference: US20080132549A1, “Sulphur-Linked Imidazone Compounds for the Treatment of Hiv/Aids” (Pfizer Inc., priority 2004, published 2008)

tested on: not given; assay: not given; details: not given

Row | Compound | melting point [°C]
1 | CCn1c(COC(N)=O)nc(C2CC2)c1Sc1cc(C#N)cc(C#N)c1 | 170 to 172
2 | CCn1c(COC(N)=O)nc(C(C)C)c1Sc1cc(C#N)cc(C#N)c1 | 174 to 175
3 | CCn1c(COC)nc(C(C)C)c1Sc1cc(C#N)cc(C#N)c1 | 156 to 158
4 | CCc1nc(CN)n(CC)c1Sc1cc(C#N)cc(C#N)c1 | 133 to 135
5 | CCc1nc(CO)n(CC)c1Sc1cc(C#N)cc(C#N)c1 | 141 to 143
6 | CCn1c(CCO)nc(C2CC2)c1Sc1cc(C#N)cc(C#N)c1 | 122 to 124
7 | CCn1c(CO)nc(C(C)C)c1Sc1cc(C#N)cc(C#N)c1 | 167 to 169
8 | CCn1c(CO)nc(C(F)(F)F)c1Sc1cc(C#N)cc(C#N)c1 [Example 9] | 184 to 186

biological target: T1, purified recombinant HIV-1 reverse transcriptase (Human immunodeficiency virus type 1 group M subtype B, UniProt P04585); assay: Inhibition of HIV-1 reverse transcriptase enzyme ([3H]-Flashplate enzyme assay, 384-well); assay type: biochemical; details: recombinant HIV-1 RT expressed in Escherichia Coli; 5% final DMSO
T1 construct: purified recombinant HIV-1 reverse transcriptase (RT, EC, 2.7.7.49); made in house; host or cells: Escherichia coli
Description: The activity of the compounds of the invention as reverse transcriptase inhibitors may be measured using the following assay.
Inhibition of HIV-1 Reverse Transcriptase Enzyme
The reverse transcriptase activity of the compounds of the invention may be assayed as follows. Using the purified recombinant HIV-1 reverse transcriptase (RT, EC, 2.7.7.49) obtained by expression in Escherichia Coli, a 384-well plate assay system was established for assaying a large number of samples using the [3H]-Flashplate enzyme assay system (NEN-SMP 410A) following the manufacturer's recommendations. The compounds were dissolved in 100% DMSO and diluted with the appropriate buffer to a 5% final DMSO concentration. The inhibitory activity was expressed in percent inhibition relative to the DMSO control.

Row | Compound | IC50 [nM]
9 | CCc1nc(CCO)n(CC)c1Sc1cc(C#N)cc(C#N)c1 [Example 1, 5-[3,5-Diethyl-2-(2-hydroxyethyl)-3H-imidazol-4-ylsulfanyl]-isophthalonitrile] | 38
10 | CCc1nc(CCOC(N)=O)n(C)c1Sc1cc(C#N)cc(C#N)c1 [Example 4, Carbamic acid 2-[5-(3,5-dicyano-phenylsulfanyl)-4-ethyl-1-methyl-1H-imidazol-2-yl]-ethyl ester] | 926
11 | CCn1c(CO)nc(C(F)(F)F)c1Sc1cc(C#N)cc(C#N)c1 [Example 9] | 1160
12 | Cn1c(COC(N)=O)nc(C2CC2)c1Sc1cc(C#N)cc(C#N)c1 [Example 14, Carbamic acid 4-cyclopropyl-5-(3,5-dicyano-phenylsulfanyl)-1-methyl-1H-imidazol-2-ylmethyl ester] | 353
13 | CCc1nc(CCOC)n(CC)c1Sc1cc(C#N)cc(C#N)c1 [Example 23, 5-[3,5-Diethyl-2-(2-methoxy-ethyl)-3H-imidazol-4-ylsulfanyl]-isophthalonitrile] | 147
14 | Cc1nc(C(F)(F)F)c(Sc2cc(C#N)cc(C#N)c2)n1C [Example 38] | 1070
15 | Cc1nc(C2CC2)c(Sc2cc(C#N)cc(C#N)c2)n1Cc1ccncc1 [Example 40] | 135
